Assay results from patent US6361764B1, “Insoluble s-triazine derivatives and their use as UV filters” (Societe L'Oreal S.A., priority 1996, dated 2002).

Columns and labels:
[1] = solid UV absorption spectrum of a film of the screened compound dispersed in white petroleum jelly; assay type: physicochemical; details: 5 g screened compound per 100 g petroleum jelly "Codex 236", film 10 Am thick, Shimadzu UV 2101 PC spectrophotometer
From the text: This 2,4,6-tris[(3′-benzotriazol-2-yl-2′-hydroxy-5′-methyl)phenylamino]-s-triazine was screened at 50 μm through a screen of stainless steel-gauze stainless steel assembly. Next, it was dispersed in white petroleum jelly sold under the trade name “Codex 236” by the company Sarega at the melting point of the petroleum jelly and in a proportion of 5 g of screened 2,4,6-tris[(3′-benzotriazol-2-yl-2′-hydroxy-5′-methyl) phenylamino]-s-triazine per 100 g of petroleum jelly. This mixture was then treated with ultrasound in order to ensure homogeneous dispersion. A film 10 Am thick was analysed.
The solid UV absorption spectrum was obtained using a Shimadzu UV 2101 PC spectrophotometer and is represented in FIG. 1.
The solid UV absorption spectrum of this 2,4,6-tris[(3′-benzotriazol-2-yl-2′-hydroxy-5′-tert-octyl)phenylamino]-s-triazine was measured according to the same procedure as in Example 1. This spectrum is represented in FIG. 2.

UV absorption in CHCl3 = assay type: physicochemical

| melting point [°C] | UV λmax (UV absorption in CHCl3; CHCl3) [nm] | UV εmax (UV absorption in CHCl3; CHCl3, at λmax) | SMILES | solid UV absorption spectrum: range absorbed [1] |
| --- | --- | --- | --- | --- |
| > 270 | – | – | Cc1cc(Nc2nc(Nc3cc(C)cc(-n4nc5ccccc5n4)c3O)nc(Nc3cc(C)cc(-n4nc5ccccc5n4)c3O)n2)c(O)c(-n2nc3ccccc3n2)c1 [Example 1, 2,4,6-tris[(3′-benzotriazol-2-yl-2′-hydroxy-5′-methyl)phenylamino]-s-triazine] | absorbs throughout the UV radiation range (280-400 nm) |
| – | 326 | 68,600 | CC(C)(C)CC(C)(C)c1cc(Nc2nc(Nc3cc(C(C)(C)CC(C)(C)C)cc(-n4nc5ccccc5n4)c3O)nc(Nc3cc(C(C)(C)CC(C)(C)C)cc(-n4nc5ccccc5n4)c3O)n2)c(O)c(-n2nc3ccccc3n2)c1 [Example 2, 2,4,6-tris[(3′-benzotriazol-2-yl-2′-hydroxy-5′-tert-octyl)phenylaminol]-s-triazine] | absorbs throughout the UV radiation range (280-400 nm) |
